Experiment: Stability of pure lycopene isomers in n-hexane during storage at room temperature
Type: physicochemical
Settings: for concentration (% of total isomers) 5-Z / concentration (% of total isomers) 9-Z / concentration (% of total isomers) 13-Z / concentration (% of total isomers) all E / concentration (% of total isomers) x-Z: n-hexane, room temperature, absence of light
Experimental: Pure 5-Z, 9-Z, 13-Z and all-E lycopene were isolated from isomerised tomato oleoresin (submitted to 1 hour heating), by collecting the fractions containing the corresponding peaks after HPLC separation (see below the experimental conditions). Peaks were collected during two consecutive HPLC runs and the corresponding fractions were pooled.
Lycopene isomer profiles were determined by normal phase HPLC according to the method described by Schierle et al. (Schierle, J., Bretzel, W., Bühler, I., Faccin, N., Hess, D., Steiner, K., Schuep, W. (1997). Food. Chem. 59: 459). Samples of isomerized oleoresins were dissolved in n-hexane containing 50 ppm BHT and spun at maximum speed in an Eppendorf Lab centrifuge. The resulting supernatants were immediately analyzed by HPLC. The HPLC system used was a 1100 series Hewlett-Packard model equipped with an ultraviolet-visible photodiode array detector. Data were simultaneously acquired at 470 nm, 464 nm, 346 nm and 294 nm. Samples (10 μL) were separated using a combination of three Nucleosil 300-5 columns (4 mm internal diameter×250 mm length, Macherey-Nagel). […] Flow rate was 0.8 mL/min. Lycopene Z-isomers were identified according to literature data.
Amounts of lycopene isomers were calculated based on surface areas of the HPLC peaks using the same extinction coefficient as the all-E lycopene. Therefore, the lycopene concentration in products containing Z-isomers is slightly underestimated since it is recognized that the extinction coefficients of Z-isomers are lower than that of the all-E isomer.
Stability of lycopene isomers was investigated both in n-hexane and in a tomato oleoresin isomerized by 4 hour heating in ethyl acetate. For this purpose, pure lycopene isomers were stored for 33 days in n-hexane at room temperature and in the absence of light, and the isomerized tomato oleoresin was kept for 55 days at room temperature in the absence of light. Total lycopene concentration and lycopene isomer profiles were measured at various time intervals during the storage.

## CC(C)=CCC/C(C)=C/C=C/C(C)=C\C=C\C(C)=C\C=C\C=C(C)\C=C\C=C(C)\C=C\C=C(/C)CCC=C(C)C [9-Z lycopene]
0 days
  concentration (% of total isomers) 5-Z: 1.8 % of total isomers
  concentration (% of total isomers) 9-Z: 93.3 % of total isomers
  concentration (% of total isomers) 13-Z: 0.6 % of total isomers
  concentration (% of total isomers) all E: 4.4 % of total isomers
  concentration (% of total isomers) x-Z: 0 % of total isomers
1 day
  concentration (% of total isomers) 5-Z: 2.1 % of total isomers
  concentration (% of total isomers) 9-Z: 87.1 % of total isomers
  concentration (% of total isomers) 13-Z: 2.3 % of total isomers
  concentration (% of total isomers) all E: 5.8 % of total isomers
  concentration (% of total isomers) x-Z: 2.8 % of total isomers
2 days
  concentration (% of total isomers) 5-Z: 11.6 % of total isomers
  concentration (% of total isomers) 9-Z: 83.5 % of total isomers
  concentration (% of total isomers) 13-Z: 3.1 % of total isomers
  concentration (% of total isomers) all E: 6.0 % of total isomers
  concentration (% of total isomers) x-Z: 5.9 % of total isomers
5 days
  concentration (% of total isomers) 5-Z: 1.5 % of total isomers
  concentration (% of total isomers) 9-Z: 79.2 % of total isomers
  concentration (% of total isomers) 13-Z: 5.2 % of total isomers
  concentration (% of total isomers) all E: 5.6 % of total isomers
  concentration (% of total isomers) x-Z: 8.6 % of total isomers
12 days
  concentration (% of total isomers) 5-Z: 2.3 % of total isomers
  concentration (% of total isomers) 9-Z: 66.5 % of total isomers
  concentration (% of total isomers) 13-Z: 8.2 % of total isomers
  concentration (% of total isomers) all E: 7.0 % of total isomers
  concentration (% of total isomers) x-Z: 15.9 % of total isomers
33 days
  concentration (% of total isomers) 5-Z: 4.1 % of total isomers
  concentration (% of total isomers) 9-Z: 56.0 % of total isomers
  concentration (% of total isomers) 13-Z: 10.5 % of total isomers
  concentration (% of total isomers) all E: 9.8 % of total isomers
  concentration (% of total isomers) x-Z: 19.7 % of total isomers

## CC(C)=CCC/C(C)=C/C=C/C(C)=C/C=C/C(C)=C\C=C\C=C(C)\C=C\C=C(C)\C=C\C=C(/C)CCC=C(C)C [13-Z lycopene]
After 33 day storage in n-hexane at room temperature in the absence of light
  fraction of the isomer transformed / converted into other isomers: more than 80%
0 days
  concentration (% of total isomers) 5-Z: 0 % of total isomers
  concentration (% of total isomers) 9-Z: 0 % of total isomers
  concentration (% of total isomers) 13-Z: 96.6 % of total isomers
  concentration (% of total isomers) all E: 2.4 % of total isomers
  concentration (% of total isomers) x-Z: 1.0 % of total isomers
1 day
  concentration (% of total isomers) 5-Z: 0 % of total isomers
  concentration (% of total isomers) 9-Z: 0.4 % of total isomers
  concentration (% of total isomers) 13-Z: 57.0 % of total isomers
  concentration (% of total isomers) all E: 42.6 % of total isomers
  concentration (% of total isomers) x-Z: 0 % of total isomers
2 days
  concentration (% of total isomers) 5-Z: 0 % of total isomers
  concentration (% of total isomers) 9-Z: 0 % of total isomers
  concentration (% of total isomers) 13-Z: 38.7 % of total isomers
  concentration (% of total isomers) all E: 59.8 % of total isomers
  concentration (% of total isomers) x-Z: 1.5 % of total isomers
5 days
  concentration (% of total isomers) 5-Z: 1.9 % of total isomers
  concentration (% of total isomers) 9-Z: 1.5 % of total isomers
  concentration (% of total isomers) 13-Z: 23.4 % of total isomers
  concentration (% of total isomers) all E: 68.9 % of total isomers
  concentration (% of total isomers) x-Z: 4.3 % of total isomers
12 days
  concentration (% of total isomers) 5-Z: 5.3 % of total isomers
  concentration (% of total isomers) 9-Z: 2.6 % of total isomers
  concentration (% of total isomers) 13-Z: 20.8 % of total isomers
  concentration (% of total isomers) all E: 65.5 % of total isomers
  concentration (% of total isomers) x-Z: 5.8 % of total isomers
33 days
  concentration (% of total isomers) 5-Z: 11.7 % of total isomers
  concentration (% of total isomers) 9-Z: 4.2 % of total isomers
  concentration (% of total isomers) 13-Z: 16.9 % of total isomers
  concentration (% of total isomers) all E: 57.0 % of total isomers
  concentration (% of total isomers) x-Z: 10.2 % of total isomers

## CC(C)=CCC\C(C)=C/C=C/C(C)=C/C=C/C(C)=C/C=C/C=C(C)/C=C/C=C(C)/C=C/C=C(\C)CCC=C(C)C [5-Z lycopene]
0 days
  concentration (% of total isomers) 5-Z: 95.5 % of total isomers
  concentration (% of total isomers) all E: 1.1 % of total isomers
  concentration (% of total isomers) x-Z: 3.4 % of total isomers
1 day
  concentration (% of total isomers) 5-Z: 84.3 % of total isomers
  concentration (% of total isomers) all E: 2.2 % of total isomers
  concentration (% of total isomers) x-Z: 13.5 % of total isomers
2 days
  concentration (% of total isomers) 5-Z: 76.9 % of total isomers
  concentration (% of total isomers) all E: 2.4 % of total isomers
  concentration (% of total isomers) x-Z: 20.6 % of total isomers
5 days
  concentration (% of total isomers) 5-Z: 68.4 % of total isomers
  concentration (% of total isomers) all E: 3.9 % of total isomers
  concentration (% of total isomers) x-Z: 27.7 % of total isomers
12 days
  concentration (% of total isomers) 5-Z: 65.3 % of total isomers
  concentration (% of total isomers) 9-Z: 0.7 % of total isomers
  concentration (% of total isomers) 13-Z: 1.7 % of total isomers
  concentration (% of total isomers) all E: 5.6 % of total isomers
  concentration (% of total isomers) x-Z: 26.7 % of total isomers
33 days
  concentration (% of total isomers) 5-Z: 53.5 % of total isomers
  concentration (% of total isomers) 9-Z: 2.3 % of total isomers
  concentration (% of total isomers) 13-Z: 2.8 % of total isomers
  concentration (% of total isomers) all E: 10.7 % of total isomers
  concentration (% of total isomers) x-Z: 30.7 % of total isomers

## CC(C)=CCC/C(C)=C/C=C/C(C)=C/C=C/C(C)=C/C=C/C=C(C)/C=C/C=C(C)/C=C/C=C(\C)CCC=C(C)C [all-E lycopene]
0 days
  concentration (% of total isomers) 5-Z: 0.5 % of total isomers
  concentration (% of total isomers) 9-Z: 0.5 % of total isomers
  concentration (% of total isomers) 13-Z: 1.4 % of total isomers
  concentration (% of total isomers) all E: 97.6 % of total isomers
  concentration (% of total isomers) x-Z: 0.1 % of total isomers
1 day
  concentration (% of total isomers) 5-Z: 1.2 % of total isomers
  concentration (% of total isomers) 9-Z: 1.2 % of total isomers
  concentration (% of total isomers) 13-Z: 10.1 % of total isomers
  concentration (% of total isomers) all E: 86.0 % of total isomers
  concentration (% of total isomers) x-Z: 1.5 % of total isomers
2 days
  concentration (% of total isomers) 5-Z: 2.6 % of total isomers
  concentration (% of total isomers) 9-Z: 1.1 % of total isomers
  concentration (% of total isomers) 13-Z: 15.0 % of total isomers
  concentration (% of total isomers) all E: 78.4 % of total isomers
  concentration (% of total isomers) x-Z: 3.0 % of total isomers
5 days
  concentration (% of total isomers) 5-Z: 3.8 % of total isomers
  concentration (% of total isomers) 9-Z: 2.2 % of total isomers
  concentration (% of total isomers) 13-Z: 19.6 % of total isomers
  concentration (% of total isomers) all E: 69.3 % of total isomers
  concentration (% of total isomers) x-Z: 5.1 % of total isomers
12 days
  concentration (% of total isomers) 5-Z: 6.4 % of total isomers
  concentration (% of total isomers) 9-Z: 2.0 % of total isomers
  concentration (% of total isomers) 13-Z: 18.2 % of total isomers
  concentration (% of total isomers) all E: 67.8 % of total isomers
  concentration (% of total isomers) x-Z: 5.6 % of total isomers
33 days
  concentration (% of total isomers) 5-Z: 13.4 % of total isomers
  concentration (% of total isomers) 9-Z: 3.8 % of total isomers
  concentration (% of total isomers) 13-Z: 15.7 % of total isomers
  concentration (% of total isomers) all E: 58.7 % of total isomers
  concentration (% of total isomers) x-Z: 8.4 % of total isomers

Reference: patent US8216619B2, “Stable and bioavailable compositions of isomers of carotenoids for skin and hair” (Indena S.p.A., priority 2006, dated 2012)
